One test concerns the target T1, P-Selectin (Homo sapiens, UniProt P16109).
T1 construct: endogenous in cells
T1 sequence (P16109 42-830): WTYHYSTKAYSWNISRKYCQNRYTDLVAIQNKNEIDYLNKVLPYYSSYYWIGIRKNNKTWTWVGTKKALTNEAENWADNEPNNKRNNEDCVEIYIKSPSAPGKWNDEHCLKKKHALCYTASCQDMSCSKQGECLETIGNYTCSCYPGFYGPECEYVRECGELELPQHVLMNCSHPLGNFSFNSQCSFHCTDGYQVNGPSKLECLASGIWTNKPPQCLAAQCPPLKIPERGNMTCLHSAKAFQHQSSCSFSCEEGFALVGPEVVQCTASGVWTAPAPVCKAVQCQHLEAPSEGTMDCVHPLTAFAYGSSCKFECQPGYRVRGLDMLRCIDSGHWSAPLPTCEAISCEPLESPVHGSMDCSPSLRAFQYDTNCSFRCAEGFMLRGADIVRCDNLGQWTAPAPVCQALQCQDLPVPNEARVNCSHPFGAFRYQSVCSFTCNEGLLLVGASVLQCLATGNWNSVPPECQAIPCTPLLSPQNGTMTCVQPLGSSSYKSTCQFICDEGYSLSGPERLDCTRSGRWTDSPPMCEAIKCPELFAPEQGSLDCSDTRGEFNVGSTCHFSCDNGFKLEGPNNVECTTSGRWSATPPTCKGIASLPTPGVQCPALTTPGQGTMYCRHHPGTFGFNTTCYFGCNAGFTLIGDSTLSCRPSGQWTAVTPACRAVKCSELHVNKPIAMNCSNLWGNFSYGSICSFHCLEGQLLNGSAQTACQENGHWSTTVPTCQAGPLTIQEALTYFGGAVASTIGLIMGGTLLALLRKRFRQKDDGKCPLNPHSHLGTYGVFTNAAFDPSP
The test can be described thus: Oligosaccharide/polysaccharide inhibition of neutrophil adhesion to thrombin activated platelets. In kind it is cell-based. The conditions noted are these: Table 6. How it is done: Briefly, platelets and neutrophils were isolated by the methods described above. Platelets were activated with thrombin and then incubated with dilutions of various oligosaccharides. Neutrophils were added, and the effect of the saccharides on the adhesion of neutrophils to activated platelets was determined.
1. Platelets were isolated as described above and were activated (2×10^8 /ml) by incubation for 20 min at room temperature with thrombin at a final concentration of 0.25 U/ml.
2. Neutrophils were isolated by layering heparinized blood over Mono-Poly Resolving Medium (Ficoll-Hypaque-Flow Laboratories), followed by centrifugation for 25 min at 2000 rpm and then, a further 25 min at 2500 rpm as described above.
3. For the assay, 20 μl of the platelet suspension (2×10^8 /ml) was placed in a microcentrifuge tube. An equal volume of the oligosaccharide preparations at concentrations from 200 μg/ml to 0.3 μg/ml, or of glycolipid-liposome preparations (prepared as described above), at concentrations from 2 μg/ml to 0.25 μg/ml, was added and the tubes were allowed to stand at room temperature for 20 min. Twenty μl of the neutrophil preparation (2×10^6 /ml) was then added and the tubes were allowed to stand for a further 20 min at room temperature.
4. Adhesion of activated platelets to the neutrophils was assessed microscopically. One hundred neutrophils were evaluated. They were scored as positive if 2 or more platelets were attached and negative if less than 2 platelets were bound. The percent of cells with 2 or more bound platelets was calculated.
Briefly, platelets and neutrophils were isolated by the methods described above. Platelets were activated with thrombin and then incubated with dilutions of various oligosaccharides. Neutrophils were added and the effect of the saccharides on the adhesion of neutrophils to activated platelets was determined.
Platelets were isolated as described above and were activated (2×10^8 /ml) by incubation for 20 min at room temperature with thrombin at a final concentration of 0.25 U/ml.
Neutrophils were isolated by layering heparinized blood over Mono-Poly Resolving Medium (Ficoll-Hypaque, Flow Laboratories), followed by centrifugation for 25 min at […] and then, a further 25 min at 2500 rpm as described above.
For the assay, 20 μl of the platelet suspension (2×10^8 /ml) was placed in an Eppendorf centrifuge tube. An equal volume of the oligosaccharide preparations at concentrations from 500 μg/ml to 2.0 μg/ml was added and the tubes were allowed to stand at room temperature for 20 min. Twenty […] of the neutrophil preparation (2×10^6 /ml) was then added and the tubes were allowed to stand for a further 20 min at room temperature.
Adhesion of activated platelets to the neutrophils was assessed microscopically. One hundred neutrophils were evaluated. They were scored as positive if 2 or more platelets were attached and negative if less than 2 platelets were bound. The percent of cells with 2 or more bound platelets was calculated.

Test [1] deals with histamine induced leukocyte rolling in rat mesenteric venules. Nature of the test: Histamine induced leukocyte rolling and adherence in rat mesenteric venules (intravital microscopy). In kind it is in vivo, rat (male Sprague-Dawley). How it is done:
Surgical procedure. Sixty-four male Sprague-Dawley rats (200-250 g) were maintained on a purified laboratory diet and fasted for 24 hours prior to the experiment. The animals were initially anesthetized with pentobarbital (65 mg/kg body weight), then a tracheotomy was performed to facilitate breathing during the experiment. The right carotid artery was cannulated and systemic arterial pressure was measured with a Statham (Oxnard, Calif.) P23A pressure transducer connected to the carotid artery cannula. Systemic blood pressure and heart rate were continuously recorded with a Grass physiologic recorder (Grass Instruments, Massachusetts). The left jugular vein was also cannulated for drug administration and blood sample collection. After a midline abdominal incision a segment of the mid-jejunum was exteriorized. All exposed tissue was moistened with saline-soaked gauze to minimize evaporation and dehydration.
Intravital microscopy. Rats were placed in a supine position on an adjustable plexiglass microscope stage and the mesentery was draped over an optically clear coverslip that allowed for observation of a 2 cm^2 segment of tissue. The temperature of the pedestal was maintained at 37° C. with a constant temperature circulator (Fisher Scientific, model 80). A small rubber gasket (area=3.14 cm^2) was placed on the mesentery and the outside area of contact between the gasket and mesentery was sealed (to prevent leakage of superfusate from the ring) with a mixture of high vacuum grease (Dow Corning Corp., Midland, Mich.) and white petrolatum (E. Fougera & Co., Melville, N.Y.). Rectal and mesenteric temperatures were continuously monitored using an electrothermometer. The exposed bowel wall was covered with Saran Wrap (Dow Chemical Co., Indiana), and the mesenteric tissue within the gasket was suffused with warmed bicarbonate-buffered saline (BBS; pH 7.4) that was bubbled with a mixture of 5% O2; 5% CO2; 90% N2.
An inverted microscope (Nikon Optiphoto, Japan) with a ×40 objective lens (Nikon Optiphoto, Japan) and a ×10 eyepiece was used to observe the mesenteric microcirculation. The mesentery was transilluminated with a 12 V-100 W direct current-stabilized light source. A video camera (Hitachi, VK-C150, Japan) mounted on the microscope projected the image onto a color monitor (Sony, PVM-2030, Japan), and the images were recorded using a video cassette recorder (Panasonic, NV8950, Japan). A video time-date generator (Panasonic, WJ810, Japan) projected the time, date, and stopwatch function onto the monitor.
Single unbranched venules with diameters ranging between 25 μm and 35 μm and a length>150 μm were selected for study. Venular diameter (Dv) was measured either on- or off-line using a video image-shearing monitor (IPM, La Mesa, Calif.). The number of adherent leukocytes was determined off-line during playback of videotaped images. A leukocyte was considered to be adherent to venular endothelium if it remained stationary for a period equal to or greater than 30 seconds. Adherent cells were expressed as the number per 100 μm length of venule. The number of emigrated leukocytes was also determined off-line during playback of videotaped images. Ary interstitial leukocytes present in the mesentery at the onset of the experiment were subtracted from the total number of leukocytes that accumulated during the course of the experiment. Leukocyte emigration was expressed as the number per microscopic field (1.7×10^-2 mm^2) or 150 μm length of venule. Rolling leukocytes were defined as those white blood cells that moved at a velocity less than that of erythrocytes in the same stream. The flux of rolling leukocytes was determined as the number of rolling leukocytes which crossed a fixed point on the venule over a given period of time. Leukocyte rolling velocity was determined from the time required for a leukocyte to roll along a given distance of the venule.

Test [2] concerns CVF-induced acute lung injury. Nature of the test: Cobra venom factor (CVF)-induced acute lung injury in the rat. In kind it is in vivo. The settings on record: in words; prior to CVF, 30 minutes. How it is done: Groups of rats were pretreated with either vehicle, SLN-OH (0.6 mg/Kg), or with SLX-OH (0.6 mg/Kg) 5 minutes prior to administration of either CVF or PBS. Each bar represents the mean of 6 animals and vertical lines represent the standard error of the mean.
Groups of rats were pretreated with either vehicle or Z at the indicated doses 5 minutes prior to administration of CVF or PBS. Each point represents the mean of 6 animals and vertical lines represent the standard error of the mean.
The intravenous injection of CVF produces intravascular complement activation which results in lung injury, defined as an increase in neutrophil accumulation within the lung, an increase in pulmonary vascular permeability and in lung hemorrhage. It is likely that intravascular complement activation results in the generation of a wide range of inflammatory mediators. Of particular relevance to the studies described here is generation of the split fifth complement component, C5a, which can stimulate the release of histamine from circulating basophils and tissue mast cells. […] The expression of selectins, including P-selectin, is a necessary first step in the process of leukocyte adherence to vascular endothelium.
Animals were dosed with different oligosaccharide preparations or phosphate buffered saline (PBS) five minutes before administration of cobra venom factor (20 units/Kg, i.v.). Included in this material was an aliquot of ^125 I-bovine serum albumin (0.5 μCi) and ^51 Cr labelled autologous red blood cells (0.5 μCi) for measuring plasma extravasation and hemorrhage respectively. Thirty minutes after administration of the cobra venom factor the animals were anesthetized with ketamine hydrochloride (10 mg/Kg) and exsanguinated via the posterior vena cava. The lung vasculature was then perfused through the right cardiac ventricle with 10 mL of PBS. The lungs were removed and the amount of radioactivity remaining within the tissue assessed with a gamma scintillation counter. Increased pulmonary vascular permeability was measured as the ratio of ^125 I in lung tissue compared with the amount present in 1 mL of venous blood obtained at the time of death. Lung hemorrhage was measured as the ratio of ^51 Cr in lung tissue compared with the amount present in 1 mL of venous blood obtained at the time of death. Neutrophil accumulation in lungs was determined by measuring the myeloperoxidase activity of lungs homogenized in PBS. Myeloperoxidase activity in lung supernatants was assayed by measuring the change in absorbance at 460 nm resulting from decomposition of H2 O2 in the presence of o-dianisidine

Structures are written as SMILES. Read-outs that look alike come from different tables or passages of the source.

With `CC(=O)N[C@H]1[C@H](O[C@H]2[C@@H](O)[C@@H](CO)O[C@@H](O[C@H]3[C@H](O)[C@@H](O)C(O)O[C@@H]3CO)[C@@H]2O)O[C@H](CO)[C@@H](O)[C@@H]1O[C@@H]1O[C@H](CO)[C@H](O)[C@H](O)[C@H]1O[C@@H]1O[C@@H](C)[C@@H](O)[C@@H](O)[C@@H]1O` (stereo partly drawn) [LNF I, reference compound], the “AMOUNT REQUIRED FOR 50% INHIBITION” value at P-Selectin is on record as “No Inhibition”.

Regarding `CC(=O)N[C@H]1[C@H](O[C@H]2[C@@H](O)[C@@H](CO)O[C@@H](O[C@H]3[C@H](O)[C@@H](O)C(O)O[C@@H]3CO)[C@@H]2O)O[C@H](CO)[C@@H](O[C@@H]2O[C@H](CO)[C@H](O)[C@H](O)[C@H]2O)[C@@H]1O[C@@H]1O[C@@H](C)[C@@H](O)[C@@H](O)[C@@H]1O` (stereo partly drawn) [LNF III (Le^x), reference compound], the IC50 on P-Selectin (read-out: AMOUNT REQUIRED FOR 50% INHIBITION (converted)) is 41 µM.

Consider `CC(=O)N[C@H]1[C@H](O[C@H]2[C@@H](O)[C@@H](CO)O[C@@H](O[C@H]3[C@H](O)[C@@H](O)C(OCC[Si](C)(C)C)O[C@@H]3CO)[C@@H]2O)O[C@H](CO)[C@@H](O[C@@H]2O[C@H](CO)[C@H](O)[C@H](O[C@]3(C(=O)O)C[C@H](O)[C@@H](NC(C)=O)[C@H]([C@H](O)[C@H](O)CO)O3)[C@H]2O)[C@@H]1O[C@@H]1O[C@@H](C)[C@@H](O)[C@@H](O)[C@@H]1O` (stereo partly drawn) [SLe^x Hexasaccharide], for which the IC50 at P-Selectin (read-out: AMOUNT REQUIRED FOR 50% INHIBITION) and on P-Selectin (read-out: amount for 50% inhibition of P-Selectin mediated binding of neutrophils to thrombin activated platelets) was 6.42 µM throughout.

In test [1] (histamine 10^-5 M), `NCCc1c[nH]cn1` [histamine] showed an Erythrocyte velocity of 1.8 ± 0.4 mm/sec, a Leukocyte adherence of 7.2 ± 1.1 per 100 μm, a Leukocyte emigration of 2.5 ± 0.9 per field and a Venular diameter of 30 ± 1 μm. Besides, in test [1] (histamine 10^-5 M), the Wall shear rate stood at 303 ± 64 s⁻¹; the “number of rolling leukocytes, fold increase” value is given as 10 -fold; the “recruitment of rolling leukocytes, fold increase” value is 5 -fold; the “reduction of leukocyte rolling velocity” value amounted to 50%. In test [1] (histamine 10^-6 M), this compound had an Erythrocyte velocity of 2.4 ± 0.2 mm/sec, a Leukocyte adherence of 4.8 ± 0.7 per 100 μm, a Leukocyte emigration of 2.0 ± 0.7 per field and a Venular diameter of 30 ± 1 μm. Further, the Wall shear rate in test [1] (histamine 10^-6 M) is 401 ± 91 s⁻¹. Also, the “effect on number of adherent leukocytes” value in test [1] (histamine 10^-6 M and 10^-5 M) is listed as “Significant increases in the number of adherent leukocytes”. In test [1] (histamine 10^-7 M), this compound gave an Erythrocyte velocity of 2.8 ± 0.2 mm/sec, a Leukocyte adherence of 2.8 ± 0.7 per 100 μm, a Leukocyte emigration of 1.5 ± 0.7 per field and a Venular diameter of 30 ± 1 μm. In addition, the Wall shear rate in test [1] (histamine 10^-7 M) turned out to be 476 ± 38 s⁻¹.

For the compound `CC(=O)N[C@H]1[C@H]([C@H](O)[C@H](O)CO)O[C@@](O[C@H]2[C@@H](O)[C@@H](CO)O[C@@H](O[C@H]3[C@H](O)[C@@H](NC(C)=O)C(O)O[C@@H]3CO)[C@@H]2O)(C(=O)O)C[C@@H]1O` (stereo partly drawn) [SLN-OH, sialyl-N-acetyllactosamine, reference compound], the “effect on CVF-induced permeability, hemorrhage, MPO / lung injury” value in test [2] is “unaltered”.

For the origin of these results see US5753631A, “Intercellular adhesion mediators” (Cytel Corporation, priority 1995, dated 1998).
